# In patent US11192907B2, “Aminopeptidase A inhibitors and pharmaceutical compositions comprising the same” (QUANTUM GENOMICS, priority 2018, dated 2021):
# Molecular target: T1, recombinant mouse APA (Mus musculus, UniProt P16406)
# T1 sequence (P16406 1-945): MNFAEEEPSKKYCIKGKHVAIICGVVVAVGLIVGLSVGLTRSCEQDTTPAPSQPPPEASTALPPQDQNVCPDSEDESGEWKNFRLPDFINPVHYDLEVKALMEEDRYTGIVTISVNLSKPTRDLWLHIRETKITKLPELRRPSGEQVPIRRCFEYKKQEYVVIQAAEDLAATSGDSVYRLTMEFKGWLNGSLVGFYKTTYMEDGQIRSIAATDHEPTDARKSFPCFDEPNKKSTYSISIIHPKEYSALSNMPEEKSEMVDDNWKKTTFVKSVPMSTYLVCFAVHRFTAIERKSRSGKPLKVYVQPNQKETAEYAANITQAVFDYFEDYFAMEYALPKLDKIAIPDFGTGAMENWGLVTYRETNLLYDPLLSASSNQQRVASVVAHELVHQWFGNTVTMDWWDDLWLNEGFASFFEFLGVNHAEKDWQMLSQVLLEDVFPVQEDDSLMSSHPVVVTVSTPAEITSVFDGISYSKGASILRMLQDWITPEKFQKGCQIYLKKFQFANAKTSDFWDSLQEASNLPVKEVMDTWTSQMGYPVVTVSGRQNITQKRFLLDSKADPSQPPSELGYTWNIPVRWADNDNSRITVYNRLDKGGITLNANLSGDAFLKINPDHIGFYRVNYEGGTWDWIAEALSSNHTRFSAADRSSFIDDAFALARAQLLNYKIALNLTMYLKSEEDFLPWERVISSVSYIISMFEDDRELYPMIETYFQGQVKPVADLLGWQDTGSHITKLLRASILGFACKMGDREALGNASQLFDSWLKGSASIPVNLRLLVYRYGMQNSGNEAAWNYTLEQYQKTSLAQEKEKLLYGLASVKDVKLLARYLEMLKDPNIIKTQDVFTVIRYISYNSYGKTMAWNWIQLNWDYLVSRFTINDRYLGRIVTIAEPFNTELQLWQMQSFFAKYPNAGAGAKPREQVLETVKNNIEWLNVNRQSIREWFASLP
# Assay: Measurement of APA activity in vitro (GluβNa hydrolysis, microplate)
# Assay type: biochemical
# Details: 200 μM Glu-βNa, pH 7.4, 37° C., read-out: In vitro inhibition of aminopeptidase A, IC50 classification
# Text: In vitro, in the presence of calcium ions, APA hydrolyses a synthetic substrate α-L-glutamyl-β-naphthylamide (GluβNa) to glutamate and β-naphthylamine (βNa). A diazotation reaction in acidic medium makes it possible to reveal the β-naphthylamine by formation of a violet-coloured complex: spectrophotometric measurement then makes it possible to know the amount of complex formed and, by reference to a standard curve produced with increasing concentrations of β-naphthylamine, to deduce the enzymatic activity of the sample.
# The reaction takes place at pH 7.4 in 50 mM tris-HCl buffer, in the presence of calcium (4 mM CaCl2)); recombinant mouse APA is incubated at 37° C. in the presence of the substrate (200 μM Glu-βNa) and in the presence or absence of various concentrations of the inhibitor to be tested, in a final volume of 100 μL. The reaction is stopped by adding 10 μL of 3N HCl. A standard curve of β-naphthylamine was prepared in parallel by diazotizing increasing concentrations (up to 0.2 mM) of 2-naphthylamine in 0.1 N HCl.
# The following are added to each well: 25 μL of sodium nitrite (NaNO2) (mix, wait 5 minutes at room temperature), 50 μL of ammonium sulfamate (mix, wait 5 minutes at room temperature), then add 25 μL of N-(1-naphthyl) ethylenediamine dihydrochloride (mix, wait for stabilization of the violet colour for approximately 30 minutes at 37° C.).
# The absorbance is then measured at 540 nm.
row,IC50,SMILES
1,30 to 300 nM,"NC(CCC(=O)O)P(=O)(O)Cc1ccc(Oc2ccccc2)cc1 (centres unmarked) [Example 18, 4-amino-4-{hydroxy[(4-phenoxyphenyl)methyl]phosphoryl}butanoic acid]"
2,< 30 nM,"NC(CCC(=O)O)P(=O)(O)CCc1cccc2ccccc12 (centres unmarked) [Example 31, 4-amino-4-{hydroxy[2-(naphthalen-1-yl)ethyl]phosphoryl}butanoic acid]"
3,300 to 10000 nM,"NC(CCC(=O)O)P(=O)(O)Cc1ccccc1-c1ccccc1 (centres unmarked) [Example 6, 4-amino-4-[({[1,1′-biphenyl]-2-yl}methyl)(hydroxy)phosphoryl]butanoic acid]"
4,30 to 300 nM,"NC(CCC(=O)O)P(=O)(O)Cc1cccc(OC(F)(F)F)c1 (centres unmarked) [Example 7, 4-amino-4-[hydroxy({[3-(trifluoromethoxy)phenyl]methyl})phosphoryl]butanoic acid]"
5,30 to 300 nM,"NC(CCC(=O)O)P(=O)(O)CCc1ccccc1-c1ccccc1 (centres unmarked) [Example 39, 4-amino-4-[(2-{[1,1′-biphenyl]-2-yl}ethyl)(hydroxy)phosphoryl]butanoic acid]"
6,< 30 nM,"N[C@@H](CCC(=O)O)P(=O)(O)CCc1ccccc1 [Example 50, (1R)-3-carboxy-1-[hydroxy(2-phenylethyl)phosphoryl]propan-1-aminium chloride]"
7,30 to 300 nM,"NC(CCC(=O)O)P(=O)(O)Cc1ccccc1 (centres unmarked) [Example 1, 4-amino-4-[benzyl(hydroxy)phosphoryl]butanoic acid]"
8,30 to 300 nM,"NC(CCC(=O)O)P(=O)(O)CCc1cccc(Cl)c1 (centres unmarked) [Example 29, 4-amino-4-{[2-(3-chlorophenyl)ethyl](hydroxy)phosphoryl}butanoic acid]"
9,30 to 300 nM,"COc1ccccc1CCP(=O)(O)C(N)CCS(=O)(=O)O (centres unmarked) [Example 62, 3-amino-3-{hydroxy[2-(2-methoxyphenyl)ethyl]phosphoryl}propane-1-sulfonic acid]"
10,300 to 10000 nM,"NC(CCS(=O)(=O)O)P(=O)(O)CCc1ccccc1 (centres unmarked) [Example 61, 3-amino-3-[hydroxy(2-phenylethyl)phosphoryl]propane-1-sulfonic acid]"
11,30 to 300 nM,"NC(CCC(=O)O)P(=O)(O)Cc1cccc(Oc2ccccc2)c1 (centres unmarked) [Example 17, 4-amino-4-{hydroxy[(3-phenoxyphenyl)methyl]phosphoryl}butanoic acid]"
12,30 to 300 nM,"COc1c(Cl)cccc1CCP(=O)(O)C(N)CCC(=O)O (centres unmarked) [Example 41, 4-amino-4-{[2-(3-chloro-2-methoxyphenyl)ethyl](hydroxy)phosphoryl}butanoic acid]"
13,300 to 10000 nM,"NC(CCS(=O)(=O)O)P(=O)(O)Cc1cc(-c2ccccc2)no1 (centres unmarked) [Example 65, 3-amino-3-{hydroxy[(3-phenyl-1,2-oxazol-5-yl)methyl]phosphoryl}propane-1-sulfonic acid]"
14,30 to 300 nM,"NC(CCC(=O)O)P(=O)(O)Cc1ccc(OC(F)(F)F)cc1 (centres unmarked) [Example 8, 4-amino-4-[hydroxy({[4-(trifluoromethoxy)phenyl]methyl})phosphoryl]butanoic acid]"
15,30 to 300 nM,"NC(CCC(=O)O)P(=O)(O)CCCc1ccccc1 (centres unmarked) [Example 37, 4-amino-4-[hydroxy(3-phenylpropyl)phosphoryl]butanoic acid]"
16,300 to 10000 nM,"CS(=O)(=O)c1ccc(CP(=O)(O)C(N)CCC(=O)O)cc1 (centres unmarked) [Example 9, 4-amino-4-{hydroxy[(4-methanesulfonylphenyl)methyl]phosphoryl}butanoic acid]"
17,< 30 nM,"NC(CCC(=O)O)P(=O)(O)Cc1cccc2ccccc12 (centres unmarked) [Example 15, 4-amino-4-{hydroxy[(naphthalen-1-yl)methyl]phosphoryl}butanoic acid]"
18,< 30 nM,"COc1ccccc1CP(=O)(O)C(N)CCC(=O)O (centres unmarked) [Example 10, 4-amino-4-{hydroxy[(2-methoxyphenyl)methyl]phosphoryl}butanoic acid]"

row,IC50,SMILES
1,30 to 300 nM,"N#Cc1ccc(CP(=O)(O)C(N)CCC(=O)O)cc1 (centres unmarked) [Example 14, 4-amino-4-{[(4-cyanophenyl)methyl](hydroxy)phosphoryl}butanoic acid]"
2,< 30 nM,"NC(CCC(=O)O)P(=O)(O)CCc1cccc(Cl)c1Cl (centres unmarked) [Example 40, 4-amino-4-{[2-(2,3-dichlorophenyl)ethyl](hydroxy)phosphoryl}butanoic acid]"
3,< 30 nM,"COc1ccccc1CCP(=O)(O)C(N)CCC(=O)O (centres unmarked) [Example 32, 4-amino-4-{hydroxy[2-(2-methoxyphenyl)ethyl]phosphoryl}butanoic acid]"
4,300 to 10000 nM,"NC(CCS(=O)(=O)O)P(=O)(O)CCCc1ccccc1 (centres unmarked) [Example 63, 3-amino-3-[hydroxy(3-phenylpropyl)phosphoryl]propane-1-sulfonic acid]"
5,30 to 300 nM,"NC(CCC(=O)O)P(=O)(O)Cc1cc(-c2ccccc2)on1 (centres unmarked) [Example 21, 4-amino-4-{hydroxy[(5-phenyl-1,2-oxazol-3-yl)methyl]phosphoryl}butanoic acid]"
6,< 30 nM,"NC(CCC(=O)O)P(=O)(O)CCc1ccccc1OC1CCCC1 (centres unmarked) [Example 36, 4-amino-4-({2-[2-(cyclopentyloxy)phenyl]ethyl}(hydroxy)phosphoryl) butanoic acid]"
7,300 to 10000 nM,"NC(CCCC(=O)O)P(=O)(O)CCc1ccccc1 (centres unmarked) [Example 49, 5-amino-5-[hydroxy(2-phenylethyl)phosphoryl]pentanoic acid]"
8,300 to 10000 nM,"N[C@H](CCC(=O)O)P(=O)(O)CCc1ccccc1 [Example 51, (1S)-3-carboxy-1-[hydroxy(2-phenylethyl)phosphoryl]propan-1-aminium chloride]"
9,300 to 10000 nM,"NC(CCC(=O)O)P(=O)(O)Cc1cc(-c2ccccc2)no1 (centres unmarked) [Example 20, 4-amino-4-{hydroxy[(3-phenyl-1,2-oxazol-5-yl)methyl]phosphoryl}butanoic acid]"
10,< 30 nM,"NC(CCC(=O)O)P(=O)(O)CCc1ccccc1Cl (centres unmarked) [Example 28, 4-amino-4-{[2-(2-chlorophenyl)ethyl](hydroxy)phosphoryl}butanoic acid]"
11,30 to 300 nM,"Cc1ccccc1CP(=O)(O)C(N)CCC(=O)O (centres unmarked) [Example 2, 4-amino-4-{hydroxy[(2-methylphenyl)methyl]phosphoryl}butanoic acid]"
12,< 30 nM,"NC(CCC(=O)O)P(=O)(O)CCc1ccccc1OC1CCCCC1 (centres unmarked) [Example 43, 3-carboxy-1-({2-[2-(cyclohexyloxy)phenyl]ethyl}(hydroxy)phosphoryl) propan-1-aminium chloride]"
13,300 to 10000 nM,"NC(CCP(=O)(O)O)P(=O)(O)CCc1ccccc1 (centres unmarked) [Example 68, {3-amino-3-[hydroxy(2-phenylethyl)phosphoryl]propyl}phosphonic acid]"
14,< 30 nM,"Cc1ccc(CCP(=O)(O)C(N)CCC(=O)O)cc1 (centres unmarked) [Example 25, 4-amino-4-{hydroxy[2-(4-methylphenyl)ethyl]phosphoryl}butanoic acid]"
15,300 to 10000 nM,"NC(CCS(=O)(=O)O)P(=O)(O)Cc1cc(-c2ccccc2)on1 (centres unmarked) [Example 66, 3-amino-3-{hydroxy[(5-phenyl-1,2-oxazol-3-yl)methyl]phosphoryl}propane-1-sulfonic acid]"
16,< 30 nM,"NC(CCC(=O)O)P(=O)(O)CCc1ccccc1Oc1ccccc1 (centres unmarked) [Example 35, 4-amino-4-{hydroxy[2-(2-phenoxyphenyl)ethyl]phosphoryl}butanoic acid]"
17,30 to 300 nM,"N#Cc1cccc(CP(=O)(O)C(N)CCC(=O)O)c1 (centres unmarked) [Example 13, 4-amino-4-{[(3-cyanophenyl)methyl](hydroxy)phosphoryl}butanoic acid]"
